Laboratory results taken from patent US20240390383A1, “DIOXAZINES AND THEIR USE IN TREATMENT OF GBA-RELATED DISEASES” (ZEVRA DENMARK A/S, priority 2021, published 2024).

Target: T1, GCase (GBA) in human fibroblast cell line GM10915 harboring the L444P GBA mutation (Homo sapiens, UniProt P04062, L483P)
T1 construct: Human fibroblast cell line GM10915 harboring the L444P GBA mutation; host or cells: GM10915 human fibroblasts
T1 sequence (P04062 40-536 L483P): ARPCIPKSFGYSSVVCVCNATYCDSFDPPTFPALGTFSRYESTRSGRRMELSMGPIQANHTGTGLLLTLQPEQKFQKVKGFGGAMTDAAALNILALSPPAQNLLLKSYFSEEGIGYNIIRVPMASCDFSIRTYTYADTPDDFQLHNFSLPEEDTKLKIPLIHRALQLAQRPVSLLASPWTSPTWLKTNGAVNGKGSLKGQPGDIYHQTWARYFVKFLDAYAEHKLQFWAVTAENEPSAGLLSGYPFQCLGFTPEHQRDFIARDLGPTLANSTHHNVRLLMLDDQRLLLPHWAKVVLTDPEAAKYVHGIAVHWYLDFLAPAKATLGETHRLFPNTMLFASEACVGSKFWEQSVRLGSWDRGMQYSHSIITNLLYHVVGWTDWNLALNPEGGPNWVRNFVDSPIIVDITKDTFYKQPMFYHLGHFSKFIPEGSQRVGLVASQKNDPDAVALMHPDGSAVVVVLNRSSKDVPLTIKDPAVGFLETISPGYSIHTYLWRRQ
Experiment: GCase activity assay (4-MUG substrate, normalised to crystal violet staining) in L444P GBA fibroblasts
Assay type: cell-based
Conditions: 5 days exposure; for GBA EC1.5: concentration giving 150% GCase activity (1.5-fold induction), 8-point dose range
Description: Human fibroblast cell line GM10915 harboring the L444P GBA mutation was obtained from Coriell Biorepositories.
All chemicals (Glacial acetic acid, Glycine, 4-Methylumbelliferyl b-D-glucopyranoside (4-MUG), Sodium acetate trihydrate, Sodium hydroxide, Crystal violet, SDS, Ammonium hydroxide) were obtained from Sigma-Aldrich (Denmark) Compounds tested for GCase activity were dissolved in H2O or DMSO.
The GM10915 cell line was cultured under standard cell culture conditions (37° C. and 5% CO2) in complete DMEM medium supplemented with nonessential amino acids (NEAA), 1% Pen-Strep and 12% FCS. Cells were seeded at a density of 10^4 cells/well in 100 μL complete medium in one black 96-well plate for glucosylceramidase (GCase) activity measurement and in one clear 96-well plate for crystal violet staining to correct for cell density. Crystal violet staining is performed to obtain quantitative information about the relative density of cells adhering to multi-wells plates.
The assay was adapted from Sawkar et al (2002) and briefly described in the following. The day after seeding of cells, the medium was replaced with fresh medium containing the compounds to be tested. Compounds were tested in duplicate and in an 8-point diluted dose range to obtain a dose response. Cells were exposed with compounds for five days. Fresh compound was added every 2-3 days. PBS was included to define the basal level of GCase activity.
Cells were washed three times with 200 μL PBS per well and 50 μL of 2.5 mM 4-MUG buffer (4-MUG dissolved in 0.2 M acetate buffer pH 4.0) was added and the cells were incubated at 37° C., 5% CO2 for 23 hours. The reaction was stopped by adding 150 μL 0.2 M glycine buffer (pH 10.8). Fluorescence was measured with a Varioskan® Flash reader (Thermo Scientific) at an excitation/emission setting of 365/445 nm.
Cells were treated with compounds in a parallel setup identical to the setup to test for GCase activity. At the end of compound treatment, cells were washed once with 200 μL PBS per well and 50 μL 0.1% w/v crystal violet (in H2O) was added. Following 10 min. of incubation, the crystal violet solution was removed, and the cells were washed three times with 200 μL PBS and 100 μL 1% SDS was added to solubilize the stain. The plate was agitated on an orbital shaker for 10-30 min. Absorbance (A) is measured at […] using a Varioskan® Flash reader (Thermo Scientific).
The fluorescence signal (F) derived from the GCase measurement is normalized to the absorbance signal (A) derived from the crystal violet staining. The percent GCase activity resulting from compound treatment is calculated relative to the basal activity obtained from untreated cells.
Maximal effect of compounds (Emax) is determined from the dose response effects as the maximum “Percent GCase activity” achieved in the dose range tested.

[1] = maximum percent GCase activity relative to untreated cells in the dose range tested

SMILES: C[C@@H]1CNC[C@@]1(C)C1=NOCC(CN2CCCCC2)O1 (relative stereo) [compound 489, rac-rel-cis-3-((3R,4R)-3,4-dimethylpyrrolidin-3-yl)-5-(piperidin-1-ylmethyl)-5,6-dihydro-1,4,2-dioxazine]
- GBA EC1.5: 29 µM
- Emax [1]: 242%

SMILES: CC(C)C1ON=C(C2CCNC2)OC1CN(C)C (racemic) [compound 713, rac-1-(6-isopropyl-3-(pyrrolidin-3-yl)-5,6-dihydro-1,4,2-dioxazin-5-yl)-N,N-dimethylmethanamine]
- GBA EC1.5: 28 µM
- Emax [1]: 212%

SMILES: C1CCN(CC2CON=C([C@]34CCN[C@H]3CCOC4)O2)CC1 (relative stereo) [compound 462, rac-rel-trans(3aR,7aS)-3a-(5-(piperidin-1-ylmethyl)-5,6-dihydro-1,4,2-dioxazin-3-yl)octahydropyrano[4,3-b]pyrrole di-2,2,2-trifluoroacetate]
- GBA EC1.5: 9 µM
- Emax [1]: 241%

SMILES: C1CCN(CC2CON=C(C3CCNC3)O2)CC1 (racemic) [compound 508, rac-5-(piperidin-1-ylmethyl)-3-(pyrrolidin-3-yl)-5,6-dihydro-1,4,2-dioxazine]
- GBA EC1.5: 17 µM
- Emax [1]: 226%

SMILES: O[C@@H]1CC[C@@H](C2=NOCC(CN3CCCCC3)O2)C1 (stereo partly shown) [compound 704]
- GBA EC1.5: 50 µM
- Emax [1]: 117%

SMILES: c1cncc(CNCCC2=NOCC(CN3CCCCC3)O2)c1 (racemic) [compound 797, rac-2-(5-(piperidin-1-ylmethyl)-5,6-dihydro-1,4,2-dioxazin-3-yl)-N-(pyridin-3-ylmethyl)ethan-1-amine]
- GBA EC1.5: 46 µM
- Emax [1]: 149%

SMILES: CC1(C2=NOC[C@@H](CN3CCCCC3)O2)CCNCC1 [compound 886]
- GBA EC1.5: 7 µM
- GBA Emax [1]: 203%

SMILES: O=c1[nH]nc2n1CCC(C1=NOCC(CN3CCCCC3)O1)C2 (stereo not shown) [compound 668]
- GBA EC1.5: 50 µM
- Emax [1]: 116%

SMILES: CC1(C2=NOCC(CN3CCCCC3)O2)CCCNC1 (racemic) [compound 476, rac-3-(3-methylpiperidin-3-yl)-5-(piperidin-1-ylmethyl)-5,6-dihydro-1,4,2-dioxazine]
- GBA EC1.5: 6 µM
- Emax [1]: 253%

SMILES: O=C1CCC(C2=NOCC(CN3CCCCC3)O2)CN1 (stereo not shown) [compound 617]
- GBA EC1.5: 50 µM
- Emax [1]: 113%

SMILES: CN1CC2(C1)CN(CC1CON=C(C3(C)CCNCC3)O1)C2 (stereo not shown) [compound 580]
- GBA EC1.5: 50 µM
- Emax [1]: 105%

SMILES: OCC1(C2=NOCC(CN3CCCCC3)O2)CCNCC1 (racemic) [compound 722, rac-(4-(5-(piperidin-1-ylmethyl)-5,6-dihydro-1,4,2-dioxazin-3-yl)piperidin-4-yl)methanol]
- GBA EC1.5: 26 µM
- Emax [1]: 153%

SMILES: CC1ON=C(C2CCNC2)OC1CN1CCCCC1 (racemic) [compound 616, rac-6-methyl-5-(piperidin-1-ylmethyl)-3-(pyrrolidin-3-yl)-5,6-dihydro-1,4,2-dioxazine]
- GBA EC1.5: 6 µM
- Emax [1]: 390%

SMILES: COC1CNCCC1C1=NOCC(CN2CCCCC2)O1 (racemic) [compound 690, rac-3-(3-methoxypiperidin-4-yl)-5-(piperidin-1-ylmethyl)-5,6-dihydro-1,4,2-dioxazine]
- GBA EC1.5: 25 µM
- Emax [1]: 205%

SMILES: CC1(C)CC(C2=NOCC(CN3CCCCC3)O2)CCN1 (racemic) [compound 705, rac-3-(2,2-dimethyl-4-piperidyl)-5-(1-piperidylmethyl)-5,6-dihydro-1,4,2-dioxazine]
- GBA EC1.5: 5 µM
- Emax [1]: 180%

SMILES: C1CCN(CC2CON=C([C@@]34CN[C@@H](CO3)C4)O2)CC1 (mixture of isomers) [compound 490, rac-(1R,4R)-1-(5-(piperidin-1-ylmethyl)-5,6-dihydro-1,4,2-dioxazin-3-yl)-2-oxa-5-azabicyclo[2.2.1]heptane]
- GBA EC1.5: 11 µM
- Emax [1]: 215%

SMILES: CN1C[C@@H]2CN(CC3CON=C(C4(C)CCNCC4)O3)C[C@@H]2C1 (stereo partly shown) [compound 592]
- GBA EC1.5: 50 µM
- Emax [1]: 110%

SMILES: COC1CC(C2=NOCC(CN3CCCCC3)O2)CN(C)C1 (stereo not shown) [compound 689]
- GBA EC1.5: 50 µM
- Emax [1]: 137%

SMILES: CN1CC2(C)CN(CC3CON=C(C4(C)CCNCC4)O3)CC2(C)C1 (stereo not shown) [compound 628]
- GBA EC1.5: 43 µM
- Emax [1]: 136%

SMILES: COc1ccc(C2(C3=NOCC(CN4CCCCC4)O3)CCNCC2)nc1 (stereo not shown) [compound 852]
- GBA EC1.5: 4 µM
- Emax [1]: 203%

SMILES: COC1(C2=NOCC(CN3CCCCC3)O2)CCNC1 (racemic) [compound 606, rac-3-(3-methoxypyrrolidin-3-yl)-5-(piperidin-1-ylmethyl)-5,6-dihydro-1,4,2-dioxazine]
- GBA EC1.5: 20 µM
- Emax [1]: 292%

SMILES: COC1CN(C)CCC1C1=NOCC(CN2CCCCC2)O1 (racemic) [compound 720, rac-3-(3-methoxy-1-methylpiperidin-4-yl)-5-(piperidin-1-ylmethyl)-5,6-dihydro-1,4,2-dioxazine]
- GBA EC1.5: 11 µM
- Emax [1]: 346%

SMILES: NC(=O)N1CCC(C2=NOCC(CN3CCCCC3)O2)C1 (stereo not shown) [compound 697]
- GBA EC1.5: 50 µM
- Emax [1]: 107%

SMILES: CN(C)C12CCC(C3=NOCC(CN4CCCCC4)O3)(CC1)CC2 (racemic) [compound 640, rac-N,N-dimethyl-4-(5-(piperidin-1-ylmethyl)-5,6-dihydro-1,4,2-dioxazin-3-yl)bicyclo[2.2.2]octan-1-amine]
- GBA EC1.5: 6 µM
- Emax [1]: 183%

SMILES: Cc1cncc(CC2(C3=NOCC(CN4CCCCC4)O3)CCNCC2)c1 (stereo not shown) [compound 520]
- GBA EC1.5: 13 µM
- Emax [1]: 136%

SMILES: CN(C)[C@H]1CC[C@@H](C2=NOCC(CN3CCCCC3)O2)CC1 (relative stereo) [compound 569, rac-rel-cis-(1S,4S)—N,N-dimethyl-4-(5-(piperidin-1-ylmethyl)-5,6-dihydro-1,4,2-dioxazin-3-yl)cyclohexan-1-amine]
- GBA EC1.5: 7 µM
- Emax [1]: 187%

SMILES: CN(C)CC1CON=C(C2CCNC2)O1 (stereo not shown) [compound 615]
- GBA EC1.5: 50 µM
- Emax [1]: 108%

SMILES: NC1CCC(C2=NOCC(CN3CCCCC3)O2)CC1 (racemic) [compound 611, rac-4-(5-(piperidin-1-ylmethyl)-5,6-dihydro-1,4,2-dioxazin-3-yl)cyclohexan-1-amine]
- GBA EC1.5: 26 µM
- Emax [1]: 299%

SMILES: C1CCN(CC2CON=C(C34CCCN(CC3)C4)O2)CC1 (racemic) [compound 553, rac-3-(1-azabicyclo[3.2.1]octan-5-yl)-5-(piperidin-1-ylmethyl)-5,6-dihydro-1,4,2-dioxazine]
- GBA EC1.5: 4 µM
- Emax [1]: 341%
